Source: patent US20080182811A1, “METABOTROPIC GLUTAMATE RECEPTOR ACTIVATOR” (Ajinomoto Co., Inc., priority 2005, published 2008)

Legend:
Type in all cases: cell-based
[1] = target: T1, group I metabotropic glutamate receptor subtype 5 (mGluR5) (Homo sapiens, UniProt P41594); assay: Electrophysiological measurement of response current in Xenopus oocytes injected with mGluR5 cRNA; details: aspartic acid 300 μM, valine 3 mM; for mGluR5 (receptor activation by amino acid): amino acid alone, others 10 mM, oocytes injected with mGluR5 cRNA; for mGluR5 (receptor activation by amino acid) / effect of amino acid (response current value) with nucleic acid and cation vs amino acid alone: cysteine 1 mM; for effect of amino acid (response current value) with nucleic acid and cation vs amino acid alone: coexistence with both inosinic acid (1 mM) and calcium ion (10 mM), FIG. 4; for effect of amino acid (response current value) with nucleic acid and cation vs amino acid alone / effect of amino acid (response current value) with cation vs amino acid alone / effect of amino acid (response current value) with nucleic acid vs amino acid alone: glutamic acid 3 μM; for effect of amino acid (response current value) with cation vs amino acid alone: coexistence with calcium ion (10 mM), FIG. 3; for effect of amino acid (response current value) with cation vs amino acid alone / effect of amino acid (response current value) with nucleic acid vs amino acid alone: cysteine 3 mM; for effect of amino acid (response current value) with nucleic acid vs amino acid alone: coexistence with inosinic acid (1 mM), FIG. 2
T1 construct: expressed in transfected cells; host or cells: Xenopus oocytes injected with cRNA
T1 sequence (P41594 21-1180 isoform P41594-2 limits assumed): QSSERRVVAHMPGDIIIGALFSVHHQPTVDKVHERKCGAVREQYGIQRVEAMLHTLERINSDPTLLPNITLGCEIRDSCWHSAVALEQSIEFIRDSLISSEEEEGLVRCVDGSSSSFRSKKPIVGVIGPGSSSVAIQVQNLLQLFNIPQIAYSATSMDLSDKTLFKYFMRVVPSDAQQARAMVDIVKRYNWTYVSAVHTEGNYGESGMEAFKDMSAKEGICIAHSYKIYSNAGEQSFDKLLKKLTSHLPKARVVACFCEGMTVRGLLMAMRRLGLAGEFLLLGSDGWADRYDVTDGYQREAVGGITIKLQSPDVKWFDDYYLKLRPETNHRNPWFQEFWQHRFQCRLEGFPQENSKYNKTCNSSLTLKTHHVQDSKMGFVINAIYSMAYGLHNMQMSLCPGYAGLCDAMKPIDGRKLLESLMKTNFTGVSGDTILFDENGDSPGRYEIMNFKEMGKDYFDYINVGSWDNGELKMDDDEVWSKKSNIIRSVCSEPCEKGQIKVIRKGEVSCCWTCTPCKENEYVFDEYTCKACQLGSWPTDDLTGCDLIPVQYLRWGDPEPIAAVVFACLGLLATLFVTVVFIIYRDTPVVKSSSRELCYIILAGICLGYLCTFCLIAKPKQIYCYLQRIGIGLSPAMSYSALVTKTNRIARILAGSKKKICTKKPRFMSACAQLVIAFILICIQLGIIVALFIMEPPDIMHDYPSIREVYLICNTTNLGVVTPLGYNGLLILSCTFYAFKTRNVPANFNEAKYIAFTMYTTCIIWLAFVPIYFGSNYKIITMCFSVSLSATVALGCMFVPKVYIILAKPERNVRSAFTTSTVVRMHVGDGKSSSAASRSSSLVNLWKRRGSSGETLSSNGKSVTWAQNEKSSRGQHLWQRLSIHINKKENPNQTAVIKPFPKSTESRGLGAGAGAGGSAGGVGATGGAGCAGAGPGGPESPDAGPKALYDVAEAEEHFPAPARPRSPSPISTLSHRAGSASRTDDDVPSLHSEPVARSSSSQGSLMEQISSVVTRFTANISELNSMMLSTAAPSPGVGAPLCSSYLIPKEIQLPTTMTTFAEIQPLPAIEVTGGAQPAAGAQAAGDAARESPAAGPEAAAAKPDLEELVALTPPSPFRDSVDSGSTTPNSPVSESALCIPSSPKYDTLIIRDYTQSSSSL
From the text: A metabotropic glutamate receptor subtype 5 (mGluR5) was used as a group I metabotropic glutamate receptor. A metabotropic glutamate receptor subtype 3 (mGluR3) was used as a representative of group II metabotropic glutamate receptors. A metabotropic glutamate receptor subtype 8 (mGluR8) was used as a representative of group III metabotropic glutamate receptors. The genes of the three metabotropic glutamate receptors, G-protein-gated inward rectifier K channel 1 (GIRK1), and G-protein-gated inward rectifier K channel 4 (GIRK4) were prepared as follows.
PCR was performed using a cDNA derived from the human brain (manufactured by Clontech) as a material and using Pfu ultra DNA Polymerase (manufactured by Stratagene) under the following conditions. After a 3-minute reaction at 94° C., a cycle of 94° C./30 seconds, 55° C./30 seconds, and 72° C./2 minutes was repeated 35 times, followed by a 7-minute reaction at 72° C. Amplified PCR products were subjected to agarose gel electrophoresis, stained with a DNA staining reagent and detected by UV irradiation. The lengths of the PCR products were confirmed by comparing the lengths with a DNA marker having a known size, which was electrophoresed simultaneously with the PCR products. A plasmid vector pBR322 was cleaved with a restriction enzyme EcoRV (manufactured by TAKARA BIO INC.). The respective gene fragments amplified by PCR were ligated to the cleaved site using Ligation Kit (manufactured by Promega). Escherichia coli DH5a strain was transformed with the reaction solution, and transformants carrying plasmids where the PCR products were cloned were selected. The PCR amplified products were identified by DNA sequence analysis. The recombinant plasmids were used as a template to prepare cRNA of each of the receptor genes using a cRNA preparation kit (Ambion, Inc.).
Special grade reagents of twenty-three L-amino acids including alanine, arginine, asparagine, aspartic acid, cysteine, glutamine, glutamic acid, glycine, histidine, isoleucine, leucine, lysine, methionine, phenylalanine, proline, serine, threonine, tryptophan, tyrosine, valine, ornithine, taurine, and hydroxyproline were used. Special grade reagents of inosine and calcium chloride were used. Glutamine and cysteine were prepared every time before use, and the other reagents were prepared and stored at −20° C. A solution for dissolving amino acids, nucleic acids, and cations, a solution for preparing Xenopus oocytes, and a solution for culturing Xenopus oocytes have the following composition. NaCl 96 mM/KCl 2 mM/MgCl2 1 mM/CaCl2 1.8 mM/Hepes 5 mM/pH 7.2.
Ca ion concentration-dependent Cl ion current measurement method using a Xenopus oocyte expression system was used as a method of measuring the signaling via a metabotropic glutamate receptor. The abdomen of a Xenopus were incised, and the egg mass was removed and treated with a 1% collagenase solution at 20° C. for 2 hours, to thereby obtain individual oocytes. To one oocyte was introduced 50 nl of 1 μg/μl receptor cRNA or 50 nl of distilled water using a microcapillary, followed by culture at 18° C. for 2 or 3 days. This culture was performed using a solution obtained by adding 2 mM pyruvic acid, 10 U/ml penicillin, and 10 μg/ml streptomycin to the solution shown in Example 2. After completion of culture, a ligand solution was added to oocytes injected with the cRNA and oocytes injected with distilled water, respectively. Electrophysiological measurement was performed using an amplifier Geneclamp 500 (manufactured by Axon Instruments, Inc.) and recording software AxoScope 9.0 (manufactured by Axon Instruments, Inc.). The oocytes were subjected to membrane potential fixation at −70 mV by a two-electrode membrane potential fixation method, and intracellular currents via Ca ion concentration-dependent Cl ion were measured. The maximal value of the intracellular currents was defined as a response current value.

[2] = target: T2, group II metabotropic glutamate receptor subtype 3 (mGluR3) (Homo sapiens, UniProt Q14832); assay: Electrophysiological measurement of response current in Xenopus oocytes injected with mGluR3, GIRK1 and GIRK4 cRNAs; details: for mgluR3 (receptor activation by amino acid): amino acid alone, 1 mM, oocytes injected with mGluR3, GIRK1, GIRK4 cRNAs; for effect of amino acid (response current value) with cation vs amino acid alone: coexistence with calcium ion (10 mM), FIG. 7; for effect of amino acid (response current value) with cation vs amino acid alone / effect of amino acid (response current value) with nucleic acid and cation vs amino acid alone / effect of amino acid (response current value) with nucleic acid vs amino acid alone: glutamic acid 3 μM, aspartic acid 300 μM, leucine 1 mM; for effect of amino acid (response current value) with cation vs amino acid alone / effect of amino acid (response current value) with nucleic acid and cation vs amino acid alone: cysteine 1 mM; for effect of amino acid (response current value) with nucleic acid and cation vs amino acid alone: coexistence with inosinic acid (1 mM) and calcium ion (10 mM), FIG. 8; for effect of amino acid (response current value) with nucleic acid vs amino acid alone: coexistence with inosinic acid (1 mM), valine 1 mM, FIG. 6
T2 construct: expressed in transfected cells; host or cells: Xenopus oocytes injected with cRNAs of mGluR3, GIRK1 and GIRK4
T2 sequence (Q14832 23-879): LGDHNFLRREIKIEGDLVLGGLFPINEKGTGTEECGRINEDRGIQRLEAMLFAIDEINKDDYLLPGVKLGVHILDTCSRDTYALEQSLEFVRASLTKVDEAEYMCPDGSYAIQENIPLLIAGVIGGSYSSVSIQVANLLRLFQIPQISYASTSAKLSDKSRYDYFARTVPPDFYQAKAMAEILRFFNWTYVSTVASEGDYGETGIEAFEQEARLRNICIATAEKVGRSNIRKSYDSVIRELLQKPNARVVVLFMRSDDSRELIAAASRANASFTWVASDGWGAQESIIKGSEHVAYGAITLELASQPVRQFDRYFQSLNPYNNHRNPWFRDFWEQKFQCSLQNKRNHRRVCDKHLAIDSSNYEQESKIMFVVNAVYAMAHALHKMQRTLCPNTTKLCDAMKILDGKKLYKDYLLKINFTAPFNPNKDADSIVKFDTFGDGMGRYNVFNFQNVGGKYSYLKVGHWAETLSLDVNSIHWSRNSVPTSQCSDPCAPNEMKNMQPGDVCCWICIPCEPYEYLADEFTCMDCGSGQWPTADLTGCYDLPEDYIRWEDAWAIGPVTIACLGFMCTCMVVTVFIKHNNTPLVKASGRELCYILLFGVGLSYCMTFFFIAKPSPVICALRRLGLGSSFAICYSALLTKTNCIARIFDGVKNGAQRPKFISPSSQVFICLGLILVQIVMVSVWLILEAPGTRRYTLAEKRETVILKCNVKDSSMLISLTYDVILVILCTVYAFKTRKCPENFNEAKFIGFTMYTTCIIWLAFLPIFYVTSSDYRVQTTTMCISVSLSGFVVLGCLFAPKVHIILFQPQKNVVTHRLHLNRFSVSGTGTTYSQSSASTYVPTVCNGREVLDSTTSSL

[3] = target: T3, group III metabotropic glutamate receptor subtype 8 (mGluR8) (Homo sapiens, UniProt O00222); assay: Electrophysiological measurement of response current in Xenopus oocytes injected with mGluR8, GIRK1 and GIRK4 cRNAs; details: cysteine 1 mM; for mgluR8 (receptor activation by amino acid): amino acid alone, aspartic acid 300 μM, valine 3 mM, others 10 mM, oocytes injected with mGluR8, GIRK1, GIRK4 cRNAs; for effect of amino acid (response current value) with nucleic acid and cation vs amino acid alone: coexistence with both inosinic acid (1 mM) and calcium ion (10 mM), FIG. 12; for effect of amino acid (response current value) with nucleic acid and cation vs amino acid alone / effect of amino acid (response current value) with cation vs amino acid alone / effect of amino acid (response current value) with nucleic acid vs amino acid alone: glutamic acid 3 μM; for effect of amino acid (response current value) with cation vs amino acid alone: coexistence with calcium ion (10 mM), FIG. 11; for effect of amino acid (response current value) with nucleic acid vs amino acid alone: coexistence with inosinic acid (1 mM), FIG. 10
T3 construct: expressed in transfected cells; host or cells: Xenopus oocytes injected with cRNAs of mGluR8, GIRK1 and GIRK4
T3 sequence (O00222 34-908): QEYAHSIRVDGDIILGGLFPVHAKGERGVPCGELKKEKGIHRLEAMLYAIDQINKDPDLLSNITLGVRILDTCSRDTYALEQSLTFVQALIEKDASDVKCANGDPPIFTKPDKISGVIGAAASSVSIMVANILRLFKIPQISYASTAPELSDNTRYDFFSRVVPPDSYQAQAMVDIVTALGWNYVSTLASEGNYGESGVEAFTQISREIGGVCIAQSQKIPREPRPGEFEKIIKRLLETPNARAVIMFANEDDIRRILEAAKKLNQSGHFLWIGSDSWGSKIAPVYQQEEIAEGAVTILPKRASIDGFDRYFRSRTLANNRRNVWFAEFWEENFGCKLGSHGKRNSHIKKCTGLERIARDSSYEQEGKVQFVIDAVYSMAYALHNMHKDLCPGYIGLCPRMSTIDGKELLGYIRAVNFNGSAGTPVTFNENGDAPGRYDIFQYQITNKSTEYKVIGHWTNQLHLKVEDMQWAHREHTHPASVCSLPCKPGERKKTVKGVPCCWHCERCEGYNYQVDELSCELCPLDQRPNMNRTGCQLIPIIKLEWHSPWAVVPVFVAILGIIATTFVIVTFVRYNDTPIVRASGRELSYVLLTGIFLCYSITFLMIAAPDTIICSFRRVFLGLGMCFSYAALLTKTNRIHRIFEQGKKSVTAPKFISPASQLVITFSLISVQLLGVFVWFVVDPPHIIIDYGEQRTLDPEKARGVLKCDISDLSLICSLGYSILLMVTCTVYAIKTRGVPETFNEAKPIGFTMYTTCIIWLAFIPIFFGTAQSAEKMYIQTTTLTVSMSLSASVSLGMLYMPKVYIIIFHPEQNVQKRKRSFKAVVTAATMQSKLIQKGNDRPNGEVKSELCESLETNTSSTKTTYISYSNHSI

| mGluR5 (receptor activation by amino acid) [1] | effect of amino acid (response current value) with nucleic acid and cation vs amino acid alone [1] | effect of amino acid (response current value) with cation vs amino acid alone [1] | effect of amino acid (response current value) with nucleic acid vs amino acid alone [1] | mgluR3 (receptor activation by amino acid) [2] | effect of amino acid (response current value) with cation vs amino acid alone [2] | effect of amino acid (response current value) with nucleic acid and cation vs amino acid alone [2] | effect of amino acid (response current value) with nucleic acid vs amino acid alone [2] | Compound | mgluR8 (receptor activation by amino acid) [3] | effect of amino acid (response current value) with nucleic acid and cation vs amino acid alone [3] | effect of amino acid (response current value) with cation vs amino acid alone [3] | effect of amino acid (response current value) with nucleic acid vs amino acid alone [3] | further results |
| --- | --- | --- | --- | --- | --- | --- | --- | --- | --- | --- | --- | --- | --- |
| Activated | enhanced | enhanced | enhanced | Activated | enhanced | enhanced | enhanced | N[C@@H](CC(=O)O)C(=O)O [Aspartic acid, aspartic acid] |  |  |  |  | mGluR5 (receptor activation by amino acid) ([1]; listed as aspartic acid): effects of enhancing; mgluR3 (receptor activation by amino acid) ([2]; listed as aspartic acid): effects of enhancing the activation |
| Activated | enhanced | enhanced | enhanced | Activated | enhanced | enhanced |  | N[C@@H](CS)C(=O)O [Cysteine, cysteine] | Activated | enhanced | enhanced | enhanced | mGluR5 (receptor activation by amino acid) ([1]; listed as cysteine): effects of enhancing; mgluR3 (receptor activation by amino acid) ([2]; listed as cysteine): effects of enhancing the activation; mgluR8 (receptor activation by amino acid) ([3]; listed as cysteine): effects of activating |
| Activated | enhanced | enhanced | enhanced | Activated |  |  | enhanced | CC(C)[C@H](N)C(=O)O [Valine, valine] |  |  |  |  | mGluR5 (receptor activation by amino acid) ([1]; listed as valine): effects of enhancing; mgluR3 (receptor activation by amino acid) ([2]; listed as valine): effects of enhancing the activation |

| Compound | mGluR5 (receptor activation by amino acid) [1] | effect of amino acid (response current value) with nucleic acid and cation vs amino acid alone [1] | effect of amino acid (response current value) with cation vs amino acid alone [1] | effect of amino acid (response current value) with nucleic acid vs amino acid alone [1] | mgluR3 (receptor activation by amino acid) [2] | effect of amino acid (response current value) with cation vs amino acid alone [2] | effect of amino acid (response current value) with nucleic acid and cation vs amino acid alone [2] | effect of amino acid (response current value) with nucleic acid vs amino acid alone [2] | mgluR8 (receptor activation by amino acid) [3] | effect of amino acid (response current value) with nucleic acid and cation vs amino acid alone [3] | effect of amino acid (response current value) with cation vs amino acid alone [3] | effect of amino acid (response current value) with nucleic acid vs amino acid alone [3] | further results |
| --- | --- | --- | --- | --- | --- | --- | --- | --- | --- | --- | --- | --- | --- |
| N[C@@H](CCC(=O)O)C(=O)O [Glutamic acid, glutamic acid, reference compound] | Activated | enhanced | enhanced | enhanced | Activated | enhanced | enhanced | enhanced | Activated | enhanced | enhanced | enhanced | mGluR5 (receptor activation by amino acid) ([1]; listed as glutamic acid): effects of enhancing; mgluR3 (receptor activation by amino acid) ([2]; listed as glutamic acid): effects of enhancing the activation; mgluR8 (receptor activation by amino acid) ([3]; listed as glutamic acid): effects of activating |
